Data: US10457707B2, “Substituted urea depsipeptide analogs as activators of the CLPP endopeptidase” (priority 2015, dated 2019)
Values after ≈ are worked out from the molar mass of the structure shown. Read-outs that look alike come from different tables or passages of the source. *1 amine or outer side, *2 acyl side, *3 side chain or, on linkers, in order; H or OH if unused. Where a SMILES comes first, the peptide text is derived from it. Bridges are numbered along the chain shown (N, C = ends). [ ]: non-standard residue; d: D form. The star is where a group is joined. NH(1,3-benzodioxol-5-yl) = c1cc2c(cc1N*)OCO2; Phe(3,5-F2) = N[C@@H](Cc1cc(F)cc(F)c1)C(=O)O; Morpholine(3S-CO) = O=C(O)[C@@H]1COCCN1; NH(4-Cl-2-F-phenyl) = Fc1cc(Cl)ccc1N*; Pro(4R-Me) = C[C@H]1CN[C@H](C(=O)O)C1; Hyp = O=C(O)[C@@H]1C[C@@H](O)CN1; NH(4-Et-phenyl) = CCc1ccc(N*)cc1; NH(4-Me-phenyl) = Cc1ccc(N*)cc1; aThr = C[C@H](O)[C@H](N)C(=O)O; Pip = O=C(O)[C@@H]1CCCCN1; X2 = CN1CCc2ccc(N*)cc21; X1 = N#Cc1cc(N*)ccc1F; CO = O=C([*:1])[*:2]

Legend:
[1] = molecular target: T1, Sa-ClpP (Staphylococcus aureus, UniProt Q2G036); experiment: ADEP displacement fluorescence polarization assay (FP probe ADEP 2591); format: binding
T1 construct: made in house; host or cells: E. coli BL21(DE3)
T1 sequence (Q2G036 1-195): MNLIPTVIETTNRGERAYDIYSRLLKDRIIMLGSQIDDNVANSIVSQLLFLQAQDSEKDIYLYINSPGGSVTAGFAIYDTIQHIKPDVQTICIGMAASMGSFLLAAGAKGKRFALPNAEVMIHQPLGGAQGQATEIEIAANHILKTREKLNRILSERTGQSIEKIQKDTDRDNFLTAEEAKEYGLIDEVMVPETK
Procedure, shortened: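 Master mix of 15 μM S. aureus ClpP with 50 nM TAMRA-labelled ADEP 2591 probe in Tris-HCl pH 8.0, 2% DMSO, was pre-equilibrated 1 h, then incubated with compound 120 min at room temperature. Polarization (ex 530, em 579 nm) was normalized to 200 μM ADEP 2378 and DMSO controls; four-parameter fits, triplicate.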

[2] = Cytotoxicity assay (CellTiter-Glo cell viability, 72 hours); format: cell-based; conditions: African green monkey
Procedure, shortened: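 Vero cells, 5000/well, grown overnight at 37° C, 5% CO2 in DMEM with 10% FBS, then exposed to serial compound dilutions or DMSO for 72 hours. Viability read by CellTiter-Glo luminescence. IC50 from duplicate wells, reported as range over two independent experiments.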

[3] = tested on: Bacillus subtilis, ATCC 23857; experiment: Minimal inhibitory concentration assay (microbroth dilution); format: cell-based
Procedure, shortened: (§1)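 Broth microdilution per CLSI M7-A7: two-fold serial dilutions of compound in broth (top final concentration 200 μM) were inoculated with ~10^5 cfu/mL bacteria and incubated aerobically overnight at 37 °C. MIC was read visually as the lowest concentration preventing growth.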

[4] = tested on: Staphylococcus aureus, ATCC 29213; experiment: as above; format: cell-based; conditions: ATCC29213, read-out: Minimal Inhibitory Concentrations S. aureus ATCC 29213
Procedure, shortened: as §1

[5] = tested on: Staphylococcus aureus, NRS70; experiment: as above; format: cell-based
Procedure, shortened: as §1

[6] = Bacillus subtilis, ATCC23857; read-out: Minimal Inhibitory Concentrations B. subtilis ATCC 23857
[7] = Staphylococcus aureus, NRS70; read-out: Minimal Inhibitory Concentrations S. aureus NRS70
[8] = Vero cells, 72 hours, growth inhibition, read-out: Cytotoxicity IC50
[9] = Bacillus subtilis, ATCC23857, read-out: Minimal Inhibitory Concentrations B. subtilis ATCC 23857
[10] = Staphylococcus aureus, NRS70, read-out: Minimal Inhibitory Concentrations S. aureus NRS70

| SMILES | IC50 [1] | IC50 at 72 h [2] | MIC [3, 6] | MIC [4] | MIC [5, 7] | IC50 at 72 h [2, 8] | MIC [3, 9] | MIC [5, 10] |
| --- | --- | --- | --- | --- | --- | --- | --- | --- |
| C[C@@H]1C[C@H]2C(=O)O[C@@H](C)[C@H](NC(=O)[C@H](Cc3cc(F)cc(F)c3)NC(=O)Nc3ccc(Cl)cc3F)C(=O)N3C[C@H](O)C[C@H]3C(=O)N3CCOC[C@H]3C(=O)N[C@@H](C)C(=O)N2C1 [Compound 316, (S)-2-(3-(4-chloro-2-fluorophenyl)ureido)-3-(3,5-difluorophenyl)-N-((6aS,8R,12S,13S,15aS,17R,21S,23aS)-8-hydroxy-13,17,21-trimethyl-6,11,15,20,23-pentaoxooctadecahydro-6H,11H,15H-[1,4]oxazino[3,4-i]dipyrrolo[2,1-c:2′,1′-l][1]oxa[4,7,10,13]tetraazacyclo-hexadecin-12-yl)propanamide] ({NH(4-Cl-2-F-phenyl)-CO}-[Phe(3,5-F2)][aThr][Hyp][Morpholine(3S-CO)]A[Pro(4R-Me)]; ester 2-C) | 6.9 ± 0.3 µM | > 100 µM | 0.313 µM (≈ 0.271 µg/mL) | 0.078 µM (≈ 0.0674 µg/mL) | 0.078 µM (≈ 0.0674 µg/mL) | – | – | – |
| Cc1ccc(NC(=O)N[C@@H](Cc2cc(F)cc(F)c2)C(=O)N[C@H]2COC(=O)[C@@H]3C[C@@H](C)CN3C(=O)[C@H](C)NC(=O)[C@@H]3COCCN3C(=O)[C@@H]3C[C@@H](O)CN3C2=O)cc1 [Compound 317, (S)-3-(3,5-difluorophenyl)-N-((6aS,8R,12S,15aS,17R,21S,23aS)-8-hydroxy-17,21-dimethyl-6,11,15,20,23-pentaoxooctadecahydro-6H,11H,15H-[1,4]oxazino[3,4-i]dipyrrolo[2,1-c:2′,1′-l][1]oxa[4,7,10,13]tetraazacyclohexadecin-12-yl)-2-(3-(p-tolyl)ureido)propanamide] ({NH(4-Me-phenyl)-CO}-[Phe(3,5-F2)]S[Hyp][Morpholine(3S-CO)]A[Pro(4R-Me)]; ester 2-C) | 7.25 ± 0.5 µM | – | – | 2.5 µM (≈ 2.03 µg/mL) | – | > 100 µM | 10 µM (≈ 8.12 µg/mL) | 2.5 µM (≈ 2.03 µg/mL) |
| C[C@@H]1C[C@H]2C(=O)OC[C@H](NC(=O)[C@H](Cc3cc(F)cc(F)c3)NC(=O)Nc3ccc4c(c3)OCO4)C(=O)N3C[C@H](O)C[C@H]3C(=O)N3CCOC[C@H]3C(=O)N[C@@H](C)C(=O)N2C1 [Compound 318, (S)-2-(3-(benzo[d][1,3]dioxol-5-yl)ureido)-3-(3,5-difluorophenyl)-N-((6aS,8R,12S,15aS,17R,21S,23aS)-8-hydroxy-17,21-dimethyl-6,11,15,20,23-pentaoxooctadecahydro-6H,11H,15H-[1,4]oxazino[3,4-i]dipyrrolo[2,1-c:2′,1′-l][1]oxa[4,7,10,13]tetraazacyclo-hexadecin-12-yl)propanamide] ({NH(1,3-benzodioxol-5-yl)-CO}-[Phe(3,5-F2)]S[Hyp][Morpholine(3S-CO)]A[Pro(4R-Me)]; ester 2-C) | 6.54 ± 0.5 µM | > 100 µM | > 20 µM | 20 µM (≈ 16.8 µg/mL) | 20 µM (≈ 16.8 µg/mL) | – | – | – |
| C[C@@H]1C[C@H]2C(=O)O[C@@H](C)[C@H](NC(=O)[C@H](Cc3cc(F)cc(F)c3)NC(=O)Nc3ccc4c(c3)OCO4)C(=O)N3C[C@H](O)C[C@H]3C(=O)N3CCOC[C@H]3C(=O)N[C@@H](C)C(=O)N2C1 [Compound 319, (S)-2-(3-(benzo[d][1,3]dioxol-5-yl)ureido)-3-(3,5-difluorophenyl)-N-((6aS,8R,12S,13S,15aS,17R,21S,23aS)-8-hydroxy-13,17,21-trimethyl-6,11,15,20,23-pentaoxooctadecahydro-6H,11H,15H-[1,4]oxazino[3,4-i]dipyrrolo[2,1-c:2′,1′-l][1]oxa[4,7,10,13]tetraazacyclo-hexadecin-12-yl)propanamide] ({NH(1,3-benzodioxol-5-yl)-CO}-[Phe(3,5-F2)][aThr][Hyp][Morpholine(3S-CO)]A[Pro(4R-Me)]; ester 2-C) | 7.75 ± 0.6 µM | > 100 µM | 10 µM (≈ 8.56 µg/mL) | 2.5 µM (≈ 2.14 µg/mL) | 5 µM (≈ 4.28 µg/mL) | – | – | – |
| CCc1ccc(NC(=O)N[C@@H](Cc2cc(F)cc(F)c2)C(=O)N[C@@H]2C(=O)N3C[C@H](O)C[C@H]3C(=O)N3CCOC[C@H]3C(=O)N[C@@H](C)C(=O)N3C[C@H](C)C[C@H]3C(=O)O[C@H]2C)cc1 [Compound 320, (S)-3-(3,5-difluorophenyl)-2-(3-(4-ethylphenyl)ureido)-N-((6aS,8R,12S,13S,15aS,17R,21S,23aS)-8-hydroxy-13,17,21-trimethyl-6,11,15,20,23-pentaoxooctadecahydro-6H,11H,15H-[1,4]oxazino[3,4-i]dipyrrolo[2,1-c:2′,1′-l][1]oxa[4,7,10,13]-tetraazacyclohexadecin-12-yl)propanamide] ({NH(4-Et-phenyl)-CO}-[Phe(3,5-F2)][aThr][Hyp][Morpholine(3S-CO)]A[Pro(4R-Me)]; ester 2-C) | 7.48 ± 0.6 µM | > 100 µM | 0.625 µM (≈ 0.525 µg/mL) | 0.156 µM (≈ 0.131 µg/mL) | 0.156 µM (≈ 0.131 µg/mL) | – | – | – |
| C[C@@H]1C[C@H]2C(=O)O[C@@H](C)[C@H](NC(=O)[C@H](Cc3cc(F)cc(F)c3)NC(=O)Nc3ccc4c(c3)N(C)CC4)C(=O)N3CCC[C@H]3C(=O)N3CCCC[C@H]3C(=O)N[C@@H](C)C(=O)N2C1 [Compound 321, (S)-3-(3,5-difluorophenyl)-2-(3-(1-methylindolin-6-yl)ureido)-N-((2R,6S,8aS,14aS,20S,21S,23aS)-2,6,21-trimethyl-5,8,14,19,23-pentaoxooctadecahydro-1H,5H,14H,19H-pyrido[2,1-i]dipyrrolo[2,1-c:2′,1′-l][1]oxa[4,7,10,13]tetraazacyclo-hexadecin-20-yl)propanamide] ({X2-CO}-[Phe(3,5-F2)][aThr]P[Pip]A[Pro(4R-Me)]; ester 2-C) | 8.23 ± 0.7 µM | – | – | 0.313 µM (≈ 0.266 µg/mL) | – | 1.39 ± 0.1 µM | 0.313 µM (≈ 0.266 µg/mL) | 0.156 µM (≈ 0.132 µg/mL) |
| Cc1ccc(NC(=O)N[C@@H](Cc2cc(F)cc(F)c2)C(=O)N[C@H]2COC(=O)[C@@H]3C[C@@H](C)CN3C(=O)[C@H](C)NC(=O)C3CCCCN3C(=O)[C@@H]3C[C@@H](O)CN3C2=O)cc1 (stereo partly drawn) [Compound 323, (S)-3-(3,5-difluorophenyl)-N-((2R,6S,8aR,14aS,16R,20S,23aS)-16-hydroxy-2,6-dimethyl-5,8,14,19,23-pentaoxooctadecahydro-1H,5H,14H,19H-pyrido[2,1-i]dipyrrolo[2,1-c:2′,1′-l][1]oxa[4,7,10,13]tetraazacyclohexadecin-20-yl)-2-(3-(p-tolyl)ureido)propanamide] | 9.18 ± 0.4 µM | – | – | 0.625 µM (≈ 0.506 µg/mL) | – | > 100 µM | 0.313 µM (≈ 0.253 µg/mL) | 0.625 µM (≈ 0.506 µg/mL) |
| C[C@@H]1C[C@H]2C(=O)O[C@@H](C)[C@H](NC(=O)[C@H](Cc3cc(F)cc(F)c3)NC(=O)Nc3ccc(F)c(C#N)c3)C(=O)N3CCC[C@H]3C(=O)N3CCCC[C@H]3C(=O)N[C@@H](C)C(=O)N2C1 [Compound 324, (S)-2-(3-(3-cyano-4-fluorophenyl)ureido)-3-(3,5-difluorophenyl)-N-((2R,6S,8aS,14aS,20S,21S,23aS)-2,6,21-trimethyl-5,8,14,19,23-pentaoxooctadecahydro-1H,5H,14H,19H-pyrido[2,1-i]dipyrrolo[2,1-c:2′,1′-l][1]oxa[4,7,10,13]tetraazacyclo-hexadecin-20-yl)propanamide] ({X1-CO}-[Phe(3,5-F2)][aThr]P[Pip]A[Pro(4R-Me)]; ester 2-C) | 7.93 ± 0.3 µM | 10.2 ± 0.5 µM | 0.625 µM (≈ 0.523 µg/mL) | 0.313 µM (≈ 0.262 µg/mL) | 0.313 µM (≈ 0.262 µg/mL) | – | – | – |
| C[C@@H]1C[C@H]2C(=O)OC[C@H](NC(=O)[C@H](Cc3cc(F)cc(F)c3)NC(=O)Nc3ccc4c(c3)OCO4)C(=O)N3C[C@H](O)C[C@H]3C(=O)N3CCCCC3C(=O)N[C@@H](C)C(=O)N2C1 (stereo partly drawn) [Compound 325, (S)-2-(3-(benzo[d][1,3]dioxol-5-yl)ureido)-3-(3,5-difluorophenyl)-N-((2R,6S,8aR,14aS,16R,20S,23aS)-16-hydroxy-2,6-dimethyl-5,8,14,19,23-pentaoxooctadecahydro-1H,5H,14H,19H-pyrido[2,1-i]dipyrrolo[2,1-c:2′,1′-l][1]oxa[4,7,10,13]tetraazacyclo-hexadecin-20-yl)propanamide] | 4.27 ± 0.2 µM | > 100 µM | 2.5 µM (≈ 2.1 µg/mL) | 1.25 µM (≈ 1.05 µg/mL) | 1.25 µM (≈ 1.05 µg/mL) | – | – | – |
